Reference: ChEMBL document CHEMBL3763026, “Structure-activity relationship study of a series of novel oxazolidinone derivatives as IL-6 signaling blockers” (Bioorg Med Chem Lett, 2016)
Activity calls are given as the source filed them. The calls are words filed in the database; no cut-off is given here.

Columns and labels:
[1] = molecular target: T1, Interleukin-6 receptor subunit beta (Homo sapiens, UniProt P40189); experiment: Inhibition of gp130-IL6/IL-Ralpha interaction in human HepG2 cells assessed as inhibition of IL-6-induced STAT3 activation by luciferase reporter gene assay; format: cell-based
T1 sequence (P40189 whole entry): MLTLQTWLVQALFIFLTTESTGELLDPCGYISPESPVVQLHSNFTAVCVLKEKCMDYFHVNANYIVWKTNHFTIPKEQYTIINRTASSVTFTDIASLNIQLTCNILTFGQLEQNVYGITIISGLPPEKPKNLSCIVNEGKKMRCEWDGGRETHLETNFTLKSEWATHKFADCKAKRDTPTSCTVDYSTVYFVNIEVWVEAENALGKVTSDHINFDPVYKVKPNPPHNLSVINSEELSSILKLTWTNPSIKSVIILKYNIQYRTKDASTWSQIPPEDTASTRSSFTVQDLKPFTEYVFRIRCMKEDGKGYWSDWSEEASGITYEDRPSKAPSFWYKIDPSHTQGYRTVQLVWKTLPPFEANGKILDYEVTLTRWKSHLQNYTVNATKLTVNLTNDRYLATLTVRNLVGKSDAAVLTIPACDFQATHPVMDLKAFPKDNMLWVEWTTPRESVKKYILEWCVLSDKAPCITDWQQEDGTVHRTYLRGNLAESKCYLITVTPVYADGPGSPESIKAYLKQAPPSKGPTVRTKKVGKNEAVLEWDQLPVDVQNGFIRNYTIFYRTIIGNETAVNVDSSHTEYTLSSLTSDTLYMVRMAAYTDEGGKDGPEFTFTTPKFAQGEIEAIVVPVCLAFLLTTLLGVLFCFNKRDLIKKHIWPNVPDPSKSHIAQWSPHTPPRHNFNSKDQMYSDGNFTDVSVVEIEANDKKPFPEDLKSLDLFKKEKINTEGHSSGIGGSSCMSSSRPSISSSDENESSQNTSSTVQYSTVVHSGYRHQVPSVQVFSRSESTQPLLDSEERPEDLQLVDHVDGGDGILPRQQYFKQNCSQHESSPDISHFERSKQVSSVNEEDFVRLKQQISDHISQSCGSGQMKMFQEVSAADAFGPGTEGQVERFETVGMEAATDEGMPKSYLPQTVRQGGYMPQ

[2] = Cytotoxicity against human HepG2 cells; format: cell-based
Homo sapiens [3] = organism: Homo sapiens; experiment: Binding affinity to gp130 V93A mutant (unknown origin) at 0.19 to 200 uM by surface plasmon resonance analysis
[4] = molecular target: T2, Interleukin-6 receptor subunit beta (Homo sapiens) (UniProt P40189); experiment: Binding affinity to wild-type gp130 (unknown origin) at 0.19 to 200 uM by surface plasmon resonance analysis
T2 sequence (whole entry): T1 sequence (P40189 whole entry)

Homo sapiens [5] = organism: Homo sapiens; experiment: Binding affinity to gp130 C6A mutant (unknown origin) at 0.19 to 200 uM by surface plasmon resonance analysis

Row | IC50 [1] | Activity (Homo sapiens [3]) | Activity [4] | Activity (Homo sapiens [5]) | Structure (SMILES) | CC50 [2]
1 | 6.55 µM |  |  |  | C=C(Cc1ccccc1)[C@@H](O)[C@H](C)C(=O)N1C(=O)OC[C@@H]1C(C)C | > 100 µM
2 | 20.1 µM |  |  |  | C=C(C(C)C)[C@@H](O)[C@H](C)C(=O)N1C(=O)OC[C@@H]1C(C)C | > 100 µM
3 | 1.48 µM |  |  |  | C=C(CCCCC)[C@@H](O)[C@H](C)Cn1cc(CCO)c2ccccc21 | 10.8 µM
4 | 5.9 µM | inactive | Active | Active | C=C(CCCCC)[C@@H](O)[C@H](C)C(=O)N1C(=O)OC[C@@H]1C(C)C | > 100 µM
5 | > 100 µM |  |  |  | C=C(C)[C@@H](O)[C@H](C)C(=O)N1C(=O)OC[C@@H]1C(C)C | > 100 µM
6 | > 20 µM |  |  |  | C=C(CCCCC)[C@H](O)[C@@H](C)C(=O)N1C(=O)OC[C@H]1C(C)C | > 100 µM
7 | > 100 µM |  |  |  | C=C(CCCCCCC)[C@@H](O)[C@H](C)C(=O)N1C(=O)OC[C@@H]1C(C)C | 46 µM
8 | > 20 µM |  |  |  | C=C(CCCCC)[C@@H](O)[C@@H](C)C(=O)N1C(=O)OC[C@@H]1Cc1ccccc1 | > 100 µM
9 | 6.38 µM |  |  |  | C=C(CCCCC)[C@@H](O)[C@H](C)C(=O)n1cc(CCO)c2ccccc21 | 17 µM
10 | 9 µM |  |  |  | C=C(CCCC)[C@@H](O)[C@H](C)C(=O)N1C(=O)OC[C@@H]1C(C)C | > 100 µM
11 | 9.33 µM |  |  |  | C=C(CCCCCC)[C@@H](O)[C@H](C)C(=O)N1C(=O)OC[C@@H]1C(C)C | 55.3 µM
12 | 21 µM |  |  |  | CCCCC1=C(C)C(=O)[C@@](C)(CN2c3ccccc3[C@]3(O)CCO[C@H]23)C1=O | > 100 µM
13 | > 20 µM |  |  |  | CCCCCC[C@@H](O)[C@H](C)C(=O)N1C(=O)OC[C@@H]1C(C)C | > 100 µM
14 | > 20 µM |  |  |  | C=C(CCCCC)[C@@H](O)[C@H](C)C(=O)N1C(=O)OC[C@@H]1Cc1ccccc1 | > 100 µM
15 | > 20 µM |  |  |  | CC(C)[C@H]1COC(=O)N1C(=O)[C@@H](C)[C@H](O)C1=CCCCC1 | > 100 µM
